In series [1] the test system is monkey liver microsomes (MLMs). Nature of the series: Enzyme kinetics of P1 formation from kurarinone in MLMs. The class given is in vitro ADME. The method, then:
(§1) Samples were prepared in a total volume of 200 μL, containing 0.3 mg/mL protein in human liver microsomes or 15 nM protein in recombinant human supersomes, probe substrates or 50 μM kurarinone, 10 mM MgCl2, 10 mM glucose-6-phosphate, and 1 unit/mL of glucose-6-phosphate dehydrogenase. The reactions were activated by adding NADPH following preincubation at 37°C for 5 min. The reactions were maintained at 37°C for 1 h and terminated by adding 200 μL ice-cold acetonitrile. The supernatant (10 μL) collected from the samples that were centrifuged (20,000 g, 20 min, 4°C) was injected into the HPLC system for analysis. Control incubations devoid of NADPH or kurarinone were performed parallelly to ensure that the produced metabolites were NADPH- or kurarinone-dependent.
(§2) Various concentrations of kurarinone (1–200 μM) were incubated with RLMs, MLMs, PLMs, RAMs, CYP1A2, and CYP2D6 to estimate kinetic parameters. The rest of the other conditions remained the same as described in Section 2.3. […] The apparent Km and Vmax values were calculated from nonlinear regression analysis of experimental data according to the Michaelis–Menten equation, and the results were represented graphically by Eadie–Hofstee plots. All incubations were carried out as triplicate independent experiments, and kinetic constants were recorded as mean ± SD.

Series [2] in a line: PAMPA permeability study. It counts as in vitro ADME. The settings on record: for Papp at 5 h: PAMPA, room temperature, read-out: PAMPA effective permeability Pe. The method, then:
The PAMPA method was used to measure the membrane permeability values, as described by Singh et al. in an earlier study. Drug samples were dissolved in DMSO and then diluted to 10 mM concentrations as a stock solution. 300 μL diluted drugs solution was filled in the PAMPA plate as the “donor” wells, and the 96-well filter plate with a synthetic phospholipid membrane was then placed on the donor wells. The “acceptor” wells were filled with 200 μl of buffer solution, and the PAMPA instruments were incubated at room temperature for 5 h. Kurarinone permeability was assessed in quadruplicate at pH 4.0 and 7.4. […] At the end of the incubation, kurarinone and the marker compounds in the donor and acceptor wells were determined by HPLC, and permeability was calculated.
Background: PAMPA measures passive passage across an artificial lipid membrane.

The target in series [3] is T1, CYP1A2 (Rattus norvegicus, UniProt P04799).
T1 construct: tissue Research Institute for Liver Disease Co., Ltd. (Shanghai, China); host or cells: pooled rat liver microsomes
T1 sequence (P04799 2-513): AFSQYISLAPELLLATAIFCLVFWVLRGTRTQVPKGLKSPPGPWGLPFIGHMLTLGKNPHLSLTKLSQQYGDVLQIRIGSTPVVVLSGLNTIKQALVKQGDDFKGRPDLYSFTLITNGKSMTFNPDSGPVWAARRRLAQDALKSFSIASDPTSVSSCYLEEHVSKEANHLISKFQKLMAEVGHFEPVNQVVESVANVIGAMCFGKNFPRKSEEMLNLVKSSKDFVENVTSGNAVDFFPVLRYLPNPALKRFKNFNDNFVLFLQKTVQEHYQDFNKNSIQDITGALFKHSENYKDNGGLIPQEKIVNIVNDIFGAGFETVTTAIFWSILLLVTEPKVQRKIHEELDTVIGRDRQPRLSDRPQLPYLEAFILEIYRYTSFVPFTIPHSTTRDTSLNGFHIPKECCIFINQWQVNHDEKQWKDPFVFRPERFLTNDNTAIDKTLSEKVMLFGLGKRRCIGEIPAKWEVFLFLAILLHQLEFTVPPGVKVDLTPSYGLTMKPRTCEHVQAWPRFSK
As to the kind of experiment: Inhibition of CYP1A2 activity (phenacetin O-deethylation) in RLMs. The class given is in vitro ADME. The protocol:
as §1
RLMs were used to assess the inhibitory effects of kurarinone (100 μM) on six different human isoforms (CYP1A2, CYP2C9, CYP2D6, CYP2E1, CYP3A4, and CYP2C19). The probe substrates used in this experiment were 40 μM phenacetin for CYP1A2, 10 μM diclofenac for CYP2C9, 25 μM dextromethorphan for CYP2D6, 120 μM chlorzoxazone for CYP2E1, 35 μM testosterone for CYP3A4, and 20 μM (S)-mephenytoin for […] as described earlier. The reaction system has been described in Section 2.3. […] Dixon and Lineweaver–Burk plots were formed to confirm the reversible inhibition type, and a second plot of slopes from the Lineweaver–Burk plot over the concentrations of kurarinone was used to estimate the Ki value. All incubations were performed in triplicates, and mean values were used for analysis.

The subject of series [4] is HL-7702 cells. The settings on record: cited from earlier work.
The subject of series [5] is rat liver microsomes (RLMs). As to the kind of experiment: Enzyme kinetics of P1 formation from kurarinone in RLMs. The class given is in vitro ADME. The method, then: as §1, §2

Where two headings read alike, the source gives them in different places.

The term Km denotes the concentration of substrate that gives half-maximal velocity. As a reminder, the IC50 is the concentration that inhibits the measured activity by half. What is called inhibition is the percentage by which the read-out fell short of the control. In general, Ki refers to a measure of affinity in units of concentration, obtained from inhibition or displacement. `C=C(C)[C@H](CC=C(C)C)Cc1c(O)cc(OC)c2c1O[C@H](c1ccc(O)cc1O)CC2=O` [Kurarinone]: the entries for the “Vmax of P1 formation” value in series [1] and in series [5] were 4.83 ± 0.14 nmol·min^−1·mg^−1 protein and 3.34 ± 0.19 nmol·min^−1·mg^−1 protein, respectively. The Km in series [1] (kurarinone 1–200 μM) worked out at 21 ± 3.42 µM; in series [5] (kurarinone 1–200 μM) it was 18.1 ± 3.91 µM. Further, the Papp at 5 h in series [2] (pH = 4) is 3.87 ± 1.39 ×10⁻⁶ cm/s; in series [2] (pH = 7) it was 2.14 ± 0.82 ×10⁻⁶ cm/s. In addition, the PAMPA permeability class entry in series [2] (pH 4.0 and 7.4) is recorded as “moderate permeability”. Besides, the “inhibition type against CYP1A2” value in series [3] (Dixon and Lineweaver–Burk plots) is “competitive”. Besides, the IC50 in series [3] (phenacetin O-deethylation, RLMs, read-out: IC50 against CYP1A2) stood at 10 µM. In series [3] (rat, rat liver microsomes, probe phenacetin 40 μM (O-deethylation), 100 μM kurarinone, 40 μM phenacetin, RLMs), this compound displayed an inhibition at 1 h, 100 μM above 90%. The compound also returned a Ki in series [3] (second plot of slopes from Lineweaver–Burk plots, RLMs) of 8.13 µM. Further, the cytotoxicity entry in series [4] was “remarkable cytotoxicity”.

(Values after paper PMC7509555, “An In Vitro Study for Evaluating Permeability and Metabolism of Kurarinone” (Evidence-based Complementary and Alternative Medicine : eCAM, 2020).)
